Measured values published in ChEMBL document CHEMBL1201862, “PubChem BioAssay data set” (2004).
The source made the active and inactive calls.

Legend:
Caspase-3 = biological target: T1, Caspase-3 (Homo sapiens, UniProt P42574); format: functional;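 further: Dose-response selectivity test against caspase-3 for candidate inhibitors of sentrin-specific proteases (SENPs)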
T1 sequence (P42574 whole entry): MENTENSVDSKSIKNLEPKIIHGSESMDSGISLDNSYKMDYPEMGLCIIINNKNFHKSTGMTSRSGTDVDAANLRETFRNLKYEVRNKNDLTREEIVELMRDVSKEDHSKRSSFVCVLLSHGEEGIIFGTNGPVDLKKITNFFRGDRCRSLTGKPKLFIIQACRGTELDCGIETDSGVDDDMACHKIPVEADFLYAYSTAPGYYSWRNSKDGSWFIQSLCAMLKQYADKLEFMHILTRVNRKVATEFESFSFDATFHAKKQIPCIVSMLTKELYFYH

[1] = biological target: T2, Sentrin-specific protease 7 (Homo sapiens, UniProt Q9BQF6); format: functional;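 further: Luminescence-based dose-response confirmation of ultra-high-throughput screening hits, measuring inhibition of SENP7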
T2 sequence (Q9BQF6 whole entry): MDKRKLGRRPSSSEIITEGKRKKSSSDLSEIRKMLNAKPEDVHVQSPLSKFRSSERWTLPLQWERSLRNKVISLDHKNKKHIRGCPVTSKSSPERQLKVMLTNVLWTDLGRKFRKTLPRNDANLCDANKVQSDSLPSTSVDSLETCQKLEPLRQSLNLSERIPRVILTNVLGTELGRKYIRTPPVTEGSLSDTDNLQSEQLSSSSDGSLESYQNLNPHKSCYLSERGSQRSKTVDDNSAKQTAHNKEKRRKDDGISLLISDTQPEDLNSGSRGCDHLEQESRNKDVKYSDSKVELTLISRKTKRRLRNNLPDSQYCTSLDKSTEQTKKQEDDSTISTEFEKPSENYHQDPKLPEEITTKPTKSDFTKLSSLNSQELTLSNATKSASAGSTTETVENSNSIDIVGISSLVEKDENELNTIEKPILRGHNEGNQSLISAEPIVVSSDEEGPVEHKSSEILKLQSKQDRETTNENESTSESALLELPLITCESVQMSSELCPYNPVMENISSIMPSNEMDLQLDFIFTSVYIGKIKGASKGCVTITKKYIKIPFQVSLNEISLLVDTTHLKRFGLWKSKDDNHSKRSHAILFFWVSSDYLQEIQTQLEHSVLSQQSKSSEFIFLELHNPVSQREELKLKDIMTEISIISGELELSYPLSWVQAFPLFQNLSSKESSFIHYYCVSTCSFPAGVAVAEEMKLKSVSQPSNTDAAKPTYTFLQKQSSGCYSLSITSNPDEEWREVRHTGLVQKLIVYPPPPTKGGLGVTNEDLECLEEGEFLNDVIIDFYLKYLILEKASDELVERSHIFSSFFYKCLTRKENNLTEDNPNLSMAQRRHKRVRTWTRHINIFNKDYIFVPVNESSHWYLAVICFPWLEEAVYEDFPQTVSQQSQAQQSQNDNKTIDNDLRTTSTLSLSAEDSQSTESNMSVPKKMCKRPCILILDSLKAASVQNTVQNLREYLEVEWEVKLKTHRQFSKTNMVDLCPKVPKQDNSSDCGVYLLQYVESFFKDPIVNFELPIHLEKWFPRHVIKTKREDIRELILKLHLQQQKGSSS

[2] = biological target: T3, Histone-lysine N-methyltransferase NSD2 (Homo sapiens, UniProt O96028); format: biochemical
T3 sequence (O96028 whole entry): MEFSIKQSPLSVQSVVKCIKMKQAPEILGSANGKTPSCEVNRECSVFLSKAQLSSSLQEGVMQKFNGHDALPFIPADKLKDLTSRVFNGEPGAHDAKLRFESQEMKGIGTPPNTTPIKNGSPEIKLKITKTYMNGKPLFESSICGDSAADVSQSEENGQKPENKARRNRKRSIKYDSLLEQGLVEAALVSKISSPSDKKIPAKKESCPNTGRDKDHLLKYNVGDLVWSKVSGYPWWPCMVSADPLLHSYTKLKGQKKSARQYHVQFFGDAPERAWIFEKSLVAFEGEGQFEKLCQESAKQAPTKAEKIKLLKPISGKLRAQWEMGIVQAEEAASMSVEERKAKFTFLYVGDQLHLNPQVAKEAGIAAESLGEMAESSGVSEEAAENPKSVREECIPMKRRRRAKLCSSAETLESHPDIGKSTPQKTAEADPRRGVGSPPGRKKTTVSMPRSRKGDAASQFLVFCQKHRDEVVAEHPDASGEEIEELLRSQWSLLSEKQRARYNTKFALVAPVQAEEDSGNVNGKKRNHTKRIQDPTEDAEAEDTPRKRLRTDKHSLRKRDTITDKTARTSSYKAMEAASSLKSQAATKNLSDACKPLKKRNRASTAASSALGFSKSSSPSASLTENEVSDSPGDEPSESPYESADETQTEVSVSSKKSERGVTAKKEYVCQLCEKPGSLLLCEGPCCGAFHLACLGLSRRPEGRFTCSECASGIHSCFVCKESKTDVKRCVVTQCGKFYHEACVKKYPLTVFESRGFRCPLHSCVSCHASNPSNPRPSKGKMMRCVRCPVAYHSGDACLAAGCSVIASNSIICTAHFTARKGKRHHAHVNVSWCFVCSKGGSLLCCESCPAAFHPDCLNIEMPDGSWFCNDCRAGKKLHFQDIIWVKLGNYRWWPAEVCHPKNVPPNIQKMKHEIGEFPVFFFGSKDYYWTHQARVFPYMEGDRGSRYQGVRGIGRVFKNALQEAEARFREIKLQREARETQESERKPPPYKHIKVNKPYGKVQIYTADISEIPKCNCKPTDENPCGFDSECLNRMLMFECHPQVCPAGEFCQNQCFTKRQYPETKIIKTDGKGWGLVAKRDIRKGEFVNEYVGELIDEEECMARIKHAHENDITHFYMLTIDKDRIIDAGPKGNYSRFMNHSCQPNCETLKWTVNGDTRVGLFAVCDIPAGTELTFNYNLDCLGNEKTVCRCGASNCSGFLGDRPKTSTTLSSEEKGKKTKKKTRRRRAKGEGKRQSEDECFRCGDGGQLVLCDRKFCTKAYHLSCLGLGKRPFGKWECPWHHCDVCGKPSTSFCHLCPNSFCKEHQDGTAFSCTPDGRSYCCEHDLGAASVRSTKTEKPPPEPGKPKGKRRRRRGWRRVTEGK

[3] = HepG2 cell cytotoxicity, dose response, cytotoxicity control for Shn3 inhibitor project, CellTiter-Glo, cherry-picked (AID 624134); format: functional, cell-based
[4] = Luminescence-based dose response cell-based high throughput screening assay for cytotoxic compounds using the IEC-6 intestinal epithelial cell line. [Related pubchem assays: 1858 (Summary AID.), 1825 (Counterscreen.), 1907 (Confirmation screen.)]; format: functional
[5] = Shn3 3'UTR reporter inhibitors, dose response, cell-based, Clone20 osteoblasts, firefly luciferase, cherry-picked (AID 624132); format: functional;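 further: firefly luciferase luminescence from reporter carrying the Shn3 3'UTR in osteoblasts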

Structure (SMILES)	IC50 (Caspase-3)	IC50 [1]	AC50 [2]	AC50 [3]	IC50 [4]	AC50 [5]
O=C(c1ccccc1)c1coc2c1C(=O)c1ccccc1C2=O	25700 nM (active)	12700 nM (active)	–	–	–	–
CCOC(=O)c1c(C)oc2c1c(/C=N/CCC(=O)O)c(O)c1ccccc12	–	–	1870 nM (active)	–	–	–
CCOC(=O)c1c(C)[nH]c2c1-c1ccccc1C(=O)C2=O	–	–	1330 nM (active)	3960 nM (active)	421 nM (active)	496 nM (active)
COc1ccc2c(c1)CCC(/C=N/c1ccc3c(c1)OCO3)=C2O	65500 nM (active)	13100 nM (active)	–	–	–	–
CC(=O)NC(c1ccc2ccccc2c1)c1ccc2cccnc2c1O (configuration not stated)	–	–	–	867 nM (active)	1050 nM (active)	422 nM (active)
